In the NIST ThermoML archive (doi:10.1021/acs.jced.7b00106):

Details: Hot wire method

FC(F)(F)/C=C/Cl [(E)-1-chloro-3,3,3-trifluoroprop-1-ene]
Details | thermal conductivity [W/m/K]
334.63 K, 179 kPa, Gas | 0.01343
334.73 K, 328 kPa, Gas | 0.01333
334.82 K, 112 kPa, Gas | 0.01357
334.91 K, 97 kPa, Gas | 0.01369
334.92 K, 253 kPa, Gas | 0.0134
335.16 K, 178 kPa, Gas | 0.01354
335.37 K, 112 kPa, Gas | 0.01364
335.44 K, 97 kPa, Gas | 0.01368
335.71 K, 176 kPa, Gas | 0.01352
336 K, 98 kPa, Gas | 0.01372
336.29 K, 176 kPa, Gas | 0.01354
341.04 K, 7818 kPa, Liquid | 0.07607
341.05 K, 502 kPa, Liquid | 0.07132
341.06 K, 4000 kPa, Liquid | 0.07359
341.11 K, 4008 kPa, Liquid | 0.07339
341.11 K, 7812 kPa, Liquid | 0.07571
341.12 K, 503 kPa, Liquid | 0.07103
341.12 K, 34293 kPa, Liquid | 0.08893
341.19 K, 34283 kPa, Liquid | 0.08864
341.28 K, 19052 kPa, Liquid | 0.08179
341.29 K, 26074 kPa, Liquid | 0.08503
341.35 K, 19044 kPa, Liquid | 0.08181
341.36 K, 12813 kPa, Liquid | 0.07865
341.37 K, 26069 kPa, Liquid | 0.08479
341.4 K, 7815 kPa, Liquid | 0.07567
341.42 K, 3996 kPa, Liquid | 0.0734
341.44 K, 510 kPa, Liquid | 0.07095
341.44 K, 12800 kPa, Liquid | 0.07849
341.47 K, 114 kPa, Gas | 0.01391
341.48 K, 7806 kPa, Liquid | 0.07567
341.5 K, 113 kPa, Gas | 0.01391
341.5 K, 182 kPa, Gas | 0.01442
341.5 K, 4008 kPa, Liquid | 0.07332
341.53 K, 498 kPa, Liquid | 0.07081
341.53 K, 53967 kPa, Liquid | 0.09634
341.54 K, 65483 kPa, Liquid | 0.1004
341.56 K, 117 kPa, Gas | 0.01424
341.57 K, 34287 kPa, Liquid | 0.08857
341.61 K, 65470 kPa, Liquid | 0.1001
341.62 K, 53976 kPa, Liquid | 0.09608
341.73 K, 464 kPa, Gas | 0.01417
341.74 K, 113 kPa, Gas | 0.01377
341.74 K, 256 kPa, Gas | 0.01435
341.76 K, 26067 kPa, Liquid | 0.08459
341.77 K, 19040 kPa, Liquid | 0.08164
341.78 K, 181 kPa, Gas | 0.01434
341.79 K, 114 kPa, Gas | 0.0139
341.8 K, 177 kPa, Gas | 0.01425
341.82 K, 7816 kPa, Liquid | 0.0756
341.84 K, 117 kPa, Gas | 0.01379
341.84 K, 465 kPa, Gas | 0.01387
341.84 K, 4002 kPa, Liquid | 0.07296
341.87 K, 26056 kPa, Liquid | 0.08482
341.88 K, 116 kPa, Gas | 0.01443
341.88 K, 490 kPa, Liquid | 0.07091
341.88 K, 12799 kPa, Liquid | 0.07857
341.88 K, 19048 kPa, Liquid | 0.08151
341.91 K, 380 kPa, Gas | 0.01419
341.92 K, 7805 kPa, Liquid | 0.07534
341.96 K, 4010 kPa, Liquid | 0.07316
341.98 K, 253 kPa, Gas | 0.01421
341.99 K, 264 kPa, Gas | 0.01423
341.99 K, 497 kPa, Liquid | 0.07068
342 K, 113 kPa, Gas | 0.01367
342.01 K, 464 kPa, Gas | 0.0141
342.01 K, 65484 kPa, Liquid | 0.1003
342.02 K, 53960 kPa, Liquid | 0.09643
342.05 K, 176 kPa, Gas | 0.01407
342.09 K, 117 kPa, Gas | 0.01369
342.1 K, 180 kPa, Gas | 0.01435
342.12 K, 465 kPa, Gas | 0.01384
342.12 K, 34281 kPa, Liquid | 0.08848
342.12 K, 65469 kPa, Liquid | 0.09982
342.13 K, 113 kPa, Gas | 0.01416
342.15 K, 367 kPa, Gas | 0.01454
342.2 K, 116 kPa, Gas | 0.01425
342.2 K, 377 kPa, Gas | 0.01421
342.21 K, 43755 kPa, Liquid | 0.09113
342.24 K, 251 kPa, Gas | 0.01415
342.24 K, 34289 kPa, Liquid | 0.08779
342.26 K, 113 kPa, Gas | 0.01361
342.29 K, 7805 kPa, Liquid | 0.07547
342.3 K, 262 kPa, Gas | 0.01427
342.32 K, 4001 kPa, Liquid | 0.07309
342.32 K, 26065 kPa, Liquid | 0.08477
342.33 K, 176 kPa, Gas | 0.01391
342.34 K, 464 kPa, Gas | 0.0141
342.34 K, 19039 kPa, Liquid | 0.08156
342.35 K, 118 kPa, Gas | 0.01366
342.37 K, 497 kPa, Liquid | 0.07069
342.4 K, 364 kPa, Gas | 0.01446
342.43 K, 179 kPa, Gas | 0.01433
342.43 K, 7788 kPa, Liquid | 0.07522
342.45 K, 465 kPa, Gas | 0.01403
342.47 K, 113 kPa, Gas | 0.01424
342.47 K, 12801 kPa, Liquid | 0.07827
342.48 K, 4008 kPa, Liquid | 0.07289
342.49 K, 19031 kPa, Liquid | 0.08119
342.51 K, 249 kPa, Gas | 0.01404
342.52 K, 491 kPa, Liquid | 0.07043
342.54 K, 114 kPa, Gas | 0.0136
342.55 K, 117 kPa, Gas | 0.01427
342.55 K, 375 kPa, Gas | 0.01415
342.57 K, 65460 kPa, Liquid | 0.1005
342.59 K, 175 kPa, Gas | 0.01391
342.6 K, 53948 kPa, Liquid | 0.09634
342.61 K, 12792 kPa, Liquid | 0.07793
342.64 K, 119 kPa, Gas | 0.01361
342.66 K, 260 kPa, Gas | 0.01427
342.67 K, 362 kPa, Gas | 0.01441
342.68 K, 43762 kPa, Liquid | 0.09267
342.7 K, 464 kPa, Gas | 0.01406
342.72 K, 65463 kPa, Liquid | 0.09997
342.73 K, 34274 kPa, Liquid | 0.08854
342.75 K, 53929 kPa, Liquid | 0.09616
342.8 K, 178 kPa, Gas | 0.01445
342.8 K, 247 kPa, Gas | 0.01402
342.8 K, 465 kPa, Gas | 0.01412
342.8 K, 7784 kPa, Liquid | 0.07528
342.84 K, 43753 kPa, Liquid | 0.09232
342.85 K, 113 kPa, Gas | 0.01425
342.85 K, 114 kPa, Gas | 0.01353
342.86 K, 4005 kPa, Liquid | 0.07287
342.89 K, 173 kPa, Gas | 0.01384
342.9 K, 34279 kPa, Liquid | 0.08837
342.91 K, 372 kPa, Gas | 0.01419
342.92 K, 488 kPa, Liquid | 0.07046
342.93 K, 359 kPa, Gas | 0.01446
342.94 K, 116 kPa, Gas | 0.01437
342.95 K, 121 kPa, Gas | 0.01352
343.03 K, 258 kPa, Gas | 0.01427
343.07 K, 464 kPa, Gas | 0.01408
343.08 K, 246 kPa, Gas | 0.01404
343.12 K, 496 kPa, Liquid | 0.06933
343.14 K, 26056 kPa, Liquid | 0.08389
343.17 K, 65460 kPa, Liquid | 0.09977
343.19 K, 19024 kPa, Liquid | 0.08036
343.2 K, 178 kPa, Gas | 0.01442
343.22 K, 357 kPa, Gas | 0.01443
343.23 K, 53929 kPa, Liquid | 0.09614
343.27 K, 113 kPa, Gas | 0.01431
343.3 K, 370 kPa, Gas | 0.01421
343.34 K, 43755 kPa, Liquid | 0.09204
343.35 K, 117 kPa, Gas | 0.01424
343.35 K, 12789 kPa, Liquid | 0.07705
